pKi: −log10 of the molar value.
What follows are molecules tested against T1, Recombinant Human Poly(ADP-Ribose) Polymerase (PARP), PARP-1 (Homo sapiens, UniProt P09874) (assay: PARP Enzyme Inhibition Assay (PARP1, SPA/FlashPlate)). Conditions: 1 nM PARP enzyme, [3H]-NAD+, 200 nM biotinylated histone H1, 200 nM slDNA.
T1 construct: purchased Trevigen; host or cells: E. coli
Format: biochemical
Description: Nicotinamide[2,5′,8-3H]adenine dinucleotide and strepavidin SPA beads were purchased from Amersham Biosiences. Recombinant Human Poly(ADP-Ribose) Polymerase (PARP), purified from E. coli and 6-Biotin-17-NAD^+, were purchase from Trevigen. NAD^+, histone, aminobenzamide, 3-amino benzamide and Calf Thymus DNA (dcDNA) were purchased from Sigma. Stem loop oligonucleotide containing MCAT sequence was obtained from Qiagen. The oligos were dissoloved to 1 mM in annealing buffer containing 10 mM Tris HCl pH 7.5, 1 mM EDTA, and 50 mM NaCl, incubated for 5 minutes at 95° C., and annealed at 45° C. for 45 minutes. Histone H1 (95% electrophoretically pure) was purchased from Roche. Biotinylated histone H1 was prepared by treating the protein with Sulfo-NHS-LC-Biotin from Pierce. The biotinylation reaction was conducted by slowly and intermittently adding 3 equivalents of 10 mM Sulfo-NHS-LC-Biotin to 100 μM Histone H1 in phosphate-buffered saline, pH 7.5, at 4° C. with gentle vortexing over 1 minute followed by subsequent 4° C. incubation for 1 hour. Streptavidin coated (FlashPlate Plus) microplates were purchased from Perkin Elmer.
PARP1 assay was conducted in PARP assay buffer containing 50 mM Tris pH 8.0, 1 mM DTT, 4 mM MgCl2. PARP reactions contained […] [^3H]-NAD^+ (1.6 uCi/mmol), 200 nM biotinylated histone H1, 200 nM slDNA, and 1 nM PARP enzyme. Auto reactions utilizing SPA bead-based detection were carried out in 100 μL volumes in white 96 well plates. Reactions were initiated by adding 50 μl of 2×NAD^+ substrate mixture to 50 μL of 2× enzyme mixture containing PARP and DNA. These reactions were terminated by the addition of 150 μL of 1.5 mM benzamide (˜1000-fold over its IC50). 170 μL of the stopped reaction mixtures were transferred to streptavidin Flash Plates, incubated for 1 hour, and counted using a TopCount microplate scintillation counter.

T1 sequence (P09874 whole entry): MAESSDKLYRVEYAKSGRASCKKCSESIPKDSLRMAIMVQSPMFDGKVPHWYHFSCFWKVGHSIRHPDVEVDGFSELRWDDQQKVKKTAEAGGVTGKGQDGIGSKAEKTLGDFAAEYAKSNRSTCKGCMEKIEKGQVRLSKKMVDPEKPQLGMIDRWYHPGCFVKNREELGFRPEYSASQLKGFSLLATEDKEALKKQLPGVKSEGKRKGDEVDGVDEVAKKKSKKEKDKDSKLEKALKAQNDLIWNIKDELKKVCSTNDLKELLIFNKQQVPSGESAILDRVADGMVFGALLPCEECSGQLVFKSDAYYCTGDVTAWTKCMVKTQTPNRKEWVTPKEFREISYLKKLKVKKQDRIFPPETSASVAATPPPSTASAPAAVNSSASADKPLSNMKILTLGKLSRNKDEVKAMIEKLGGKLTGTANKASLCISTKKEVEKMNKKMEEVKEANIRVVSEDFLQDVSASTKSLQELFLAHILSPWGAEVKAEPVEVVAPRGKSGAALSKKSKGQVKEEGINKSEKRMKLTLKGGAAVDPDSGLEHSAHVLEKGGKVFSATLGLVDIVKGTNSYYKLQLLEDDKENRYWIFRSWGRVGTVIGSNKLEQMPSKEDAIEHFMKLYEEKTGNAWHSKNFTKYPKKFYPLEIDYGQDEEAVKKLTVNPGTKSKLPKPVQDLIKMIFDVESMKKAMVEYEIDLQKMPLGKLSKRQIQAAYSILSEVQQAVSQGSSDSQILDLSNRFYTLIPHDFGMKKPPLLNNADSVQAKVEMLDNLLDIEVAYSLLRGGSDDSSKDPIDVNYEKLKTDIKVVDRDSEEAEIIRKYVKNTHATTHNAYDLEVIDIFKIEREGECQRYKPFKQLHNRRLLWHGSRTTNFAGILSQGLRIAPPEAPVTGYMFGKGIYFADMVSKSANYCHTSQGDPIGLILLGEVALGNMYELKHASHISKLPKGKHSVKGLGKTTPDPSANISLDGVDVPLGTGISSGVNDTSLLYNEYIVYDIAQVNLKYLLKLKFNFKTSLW

Row | Compound | pKi
1 | NC(=O)c1cccc2oc(-c3ccc(Br)cc3)nc12 [Example 1, 2-(4-bromophenyl)-1,3-benzoxazole-4-carboxamide] | 6.85
2 | NC(=O)c1cccc2oc(-c3ccc(-c4ccccc4)cc3)nc12 [Example 2, 2-(1,1′-biphenyl-4-yl)-1,3-benzoxazole-4-carboxamide] | 5.04
3 | NC(=O)c1cccc2oc(-c3ccc(-c4cccnc4)cc3)nc12 [Example 3, 2-(4-pyridin-3-ylphenyl)-1,3-benzoxazole-4-carboxamide] | 6.51
4 | NC(=O)c1cccc2nc(-c3ccc(Br)cc3)oc12 [Example 4, 2-(4-bromophenyl)-1,3-benzoxazole-7-carboxamide] | 7.32
5 | NC(=O)c1cccc2nc(-c3ccc(-c4ccccc4)cc3)oc12 [Example 5, 2-(1,1′-biphenyl-4-yl)-1,3-benzoxazole-7-carboxamide] | 6.71
6 | NC(=O)c1cccc2nc(-c3ccc(-c4ccc5c(c4)OCO5)cc3)oc12 [Example 6, 2-[4-(1,3-benzodioxol-5-yl)phenyl]-1,3-benzoxazole-7-carboxamide] | 6.08
7 | NC(=O)c1cccc2nc(-c3ccc(-c4cc[nH]n4)cc3)oc12 [Example 7, 2-[4-(1H-pyrazol-3-yl)phenyl]-1,3-benzoxazole-7-carboxamide] | 6.96
8 | NC(=O)c1cccc2nc(-c3ccc(-c4cccc(N)c4)cc3)oc12 [Example 8, 2-(3′-amino-1,1′-biphenyl-4-yl)-1,3-benzoxazole-7-carboxamide] | 5.49
9 | NC(=O)c1cccc2nc(-c3ccc(-c4cccnc4)cc3)oc12 [Example 9, 2-(4-pyridin-3-ylphenyl)-1,3-benzoxazole-7-carboxamide] | 7.20
10 | NC(=O)c1cccc2nc(-c3ccc(-c4ccncc4)cc3)oc12 [Example 10, 2-(4-pyridin-4-ylphenyl)-1,3-benzoxazole-7-carboxamide] | 5.79
11 | NC(=O)c1cccc2nc(-c3ccc(-c4ccccn4)cc3)oc12 [Example 11, 2-(4-pyridin-2-ylphenyl)-1,3-benzoxazole-7-carboxamide] | 7.96
12 | NC(=O)c1cccc2oc(-c3ccccc3)nc12 [Example 12, 2-phenyl-1,3-benzoxazole-4-carboxamide] | 6.30

From patent publication US20110293744A1, “BENZOXAZOLE INHIBITORS OF POLY(ADP-RIBOSE)POLYMERASE” (ABBOTT LABORATORIES, priority 2009, published 2011)
